From US12723233B2, “Media and methods for differentiating natural killer cells” (STEMCELL Technologies Canada Inc., priority 2018, dated 2026)
“Also recorded” adds a separate entry of the source.

Legend:
NK cell progenitors = assay: Differentiation of cord blood CD34+-derived NK cell progenitors to CD56+ NK cells (culture days 14-28), flow cytometry and cell counts; format: cell-based, Human
Procedure: Human CB samples were obtained from Bloodworks NW (Seattle, WA) and CD34^+ cells were isolated using EasySep™ Human Cord Blood CD34 Positive Selection Kit II (STEMCELL Technologies, Catalogue #17896). Obtained in this way the purity of CD34^+ cells is typically higher than 90%.
The wells of a 24-well plate were coated with StemSpan™ Lymphoid Differentiation Coating Supplement (STEMCELL Technologies, Catalogue #09925) and 5000 CD34^+ cells were plated per well. The CD34^+ cells were cultured for up to 14 days in StemSpan™ SFEM II (STEMCELL Technologies, Catalogue #09605, 09655) supplemented with Lymphoid Progenitor Expansion Supplement (STEMCELL Technologies, Catalogue #09915) with media changes every 3-4 days.
After 14 days in culture, CD34^+ cell-derived NK cell progenitors were harvested. 50,000 NK cell progenitors were plated per well of an uncoated tissue culture 24-well plate. The plated NK cell progenitors were cultured for up to two weeks in NK Cell Differentiation medium (i.e StemSpan™ SFEM II (STEMCELL Technologies, Catalog # 09605, 09655) supplemented with NK Cell Differentiation Supplement (STEMCELL Technologies, Catalogue #09950), and cultured for an additional two weeks with media changes every 3-4 days. UM729 or UM171 was added to supplemented NK Cell Differentiation Medium on days 14-28. On day 28 cells were harvested for analysis or downstream applications.
Harvested cells were stained and measured by flow cytometry for expression of the NK cell lineage marker CD56. Dead cells were excluded by light scatter profile and 7-AAD or DRAQ7 staining. The results in FIGS. 1 and 2 at condition “0” (plotted on the x-axis) indicate the frequency and yield of CD56^+ NK cells that result from experiments that follows the protocol described above but in the absence of UM171 or UM729. Cell counts were obtained using the NucleoCounter NC250. Yield was calculated by dividing the resulting cell number by the number of cells initially seeded. Yields of specific cell types were obtained by multiplying total yield by cell frequency.
Cells were cultured as described in Example 1, with the exception that the up to two week culture of NK cell progenitors (i.e. culture days 14-28) in NK Cell Differentiation medium occurred in the presence or absence of UM171 or UM729.
The effects of UM171 and UM729 were tested across a range of concentrations: 0 nM, 50 nM, 100 nM, 150 nM and 200 nM for UM171; and 0 μM, 0.25 μM, 0.5 μM, 1 μM, and 2 μM for UM729.
CD34^+ CB cells were isolated and cultured as described in Example 1 up to the day 14 time point. Day 14 NK cell progenitors were further cultured in NK Cell Differentiation medium, essentially as described in Example 1, except in the absence of an added pyrimidoindole compound but in the presence or absence of 5 μM CH223191.

CD34+ HSPC = assay: Differentiation of CD34+ HSPC into CD7+CD5+ NK cell progenitors (days 0-14), CD7 and CD5 expression at day 14; format: cell-based, Human; conditions: day 0-14 culture medium supplemented with 100 nM UM171, day 14
Procedure: (§1) […] CB cells were isolated and cultured as described in Example 1. As in Example 1 and 2 the different media were used in the day 0-14 and the day 14-28 cultures, except the day 0-14 culture medium was further supplemented with 100 nM UM171 to investigate its effect on the differentiation of CD4^+ HSPC to NK cells.
(§2) In these experiments UM171 was added to the cultures at different time points: days 0-14 (+/−); days 14-28 (−/+); or days 0-28 (+/+). Cultures without UM171 were also set up (−/−). Cells were either analyzed at day 28 for CD56 expression (FIG. 8) or at day 14 for CD7 and CD5 expression (FIG. 9).

[1] = system: Cord blood-derived CD34+ HSPC cells; assay: UM171 added at different times of the day 0-28 NK differentiation culture, CD56 expression at day 28; format: cell-based, Human; conditions: analyzed at day 28
Procedure: as §1, §2

[2] = system: differentiated CD56+ NK cells; assay: Flow cytometry of NK cell, maturity and T cell markers on differentiated CD56+ NK cells at day 28; format: cell-based, Human; conditions: 100 nM UM171, day 28
Procedure: CD56^+ NK cells were differentiated as described in Examples 1 and 2 in the presence of 1 μM UM729 and analyzed on day 28 by flow cytometry for the expression of known NK cell markers. Cells were stained with fluorescence-conjugated antibodies against indicated NK cell markers for 15 min at 4° C. Non-specific binding was blocked using FcR blocker and 5% human or rat serum. Dead cells were excluded by light scatter profile and 7-AAD or DRAQ7 staining. Prepared samples were analyzed by flow cytometry.
CD56^+ NK cells were differentiated as described in Examples 1 and 2 in the presence of 1 μM UM729 and analyzed on day 28 by flow cytometry for the expression of known NK cell markers. The cells were stained for the markers described in this Example essentially as described in Example 3. Staining for KIR molecules was performed using a combination of two clones for the antibody, 180704 and HP-MA4, as each recognizes a distinct subset of KIR molecules. Dead cells were excluded by light scatter profile and 7-AAD or DRAQ7 staining.
Production of IFNγ by the differentiated CD56^+ NK cells was also measured. For IFNγ intracellular staining, differentiated CD56^+ NK Cells were stimulated with PMA/Ionomycin for 2 hours. Brefeldin A was added and the cells were incubated for another 2 hours. The cells were harvested and stained for CD56 and Zombie NIR viability dye then fixed, permeabilized and stained for intracellular IFNγ.
CD56^+ NK cells were differentiated as described in Examples 1 and 2 in the presence of pyrimidoindole compounds and analyzed on day 28 by flow cytometry for the expression of a T cell marker. The analyzed cells were stained for CD3 essentially as described in Example 3. Dead cells were excluded by light scatter profile and 7-AAD or DRAQ7 staining.

[3] = reported; cited from earlier work
[4] = 5 μM CH223191, no added pyrimidoindole compound, day 14 NK cell progenitors
[5] = 100 nM UM171 between days 0-14 (+/−)
[6] = 100 nM UM171 between days 14-28 (−/+)
[7] = 100 nM UM171, normalized to STD cultures, n=15
[8] = tested 0, 50, 100, 150, 200 nM, days 14-28

Row | SMILES | CD56+ NK cell frequency compared to absence of CH223191 (NK cell progenitors; [4]) | CD56+ NK cell yield compared to absence of CH223191 (NK cell progenitors; [4]) | Frequency of CD7+CD5+ NK cell progenitors compared to cultures not supplemented with UM171 (CD34+ HSPC) | Yield of CD7+CD5+ NK cell progenitors compared to cultures not supplemented with UM171 (CD34+ HSPC) | CD56+ cell frequency compared to cultures lacking UM171 on days 0-14 (−/−) [1, 5] | CD56+ cell yield compared to cultures lacking UM171 on days 0-14 (−/−) [1, 5] | NK cell frequency compared to cultures lacking UM171 (−/−) [1, 6] | NK cell yield compared to cultures lacking UM171 (−/−) [1, 6] | Effect of inclusion of UM171 during days 14-28 on CD56+ NK cell frequency and yield in the (+/+) condition ([1]; 100 nM UM171 days 0-28 (+/+)) | Frequency of CD56+ NK cells compared to cultures lacking UM171 (NK cell progenitors; 100 nM UM171, 14 days culture of NK cell progenitors, paired t-test p=0.013) | Increase of average frequency of NK cells compared to culture conditions not including a pyrimidoindole compound (NK cell progenitors; [7]) | Increase of average yield of NK cells compared to culture conditions not including a pyrimidoindole compound (NK cell progenitors; [7]) | Concentration at which frequency of CD56+ NK cells appeared to be highest (NK cell progenitors; [8]) | Concentration at which yield of CD56+ NK cells appeared to be highest (NK cell progenitors; [8]) | Expression of CD3 among differentiated cells ([2]; cord blood sample of a first donor) | Expression of CD3 among differentiated cells ([2]; cord blood sample of a second donor) | Potency relative to UM729 [3]
1 | Cc1ccccc1N=Nc1ccc(NC(=O)c2ccnn2C)c(C)c1 [CH223191] | decreased | decreased |  |  |  |  |  |  |  |  |  |  |  |  |  |  | 
2 | Cn1nnc(-c2ccc3c(c2)[nH]c2nc(Cc4ccccc4)nc(N[C@H]4CC[C@H](N)CC4)c23)n1 [UM171, (1r,4r)-N^1-(2-benzyl-7-(2-methyl-2H-tetrazol-5-yl)-9H-pyrimido[4,5-13]indol-4-yl)cyclohexane-1,4-diamine] |  |  | clear reduction | clear reduction | lower | lower | increase | increase | can compensate for the effects of this compound on day 0-14 cultures | increased significantly | ~ 30% | 2 fold | 100 nM | 100 nM | virtually absent; also recorded: do not express CD3 | virtually absent; also recorded: do not express CD3 | approximately 10 ×
